Patent US20190086390A1, “INDIRECT ASSESSMENT OF INSULIN RELEASE IN A CELL” (Board of Supervisors of Louisiana State University and …, priority 2016, published 2019)
Where “and” joins values, the source holds several entries; their conditions need not be identical. Identical values can stand only once.

Legend:
Format in all cases: cell-based, rat
[1] = system: 832/13 and 833/15 cells; assay: Mitochondrial/nuclear DNA ratio analysis; settings: 6 or 18 h
Method: Genomic DNA was isolated using a DNeasy kit from Qiagen (Valencia, Calif.) per the manufacturer's protocol and quantified via quantitative PCR using iTaq Universal SYBR Green Supermix (Bio-Rad). Mitochondrial number was determined as the expression of genes encoded by mitochondrial DNA (COI and ATP6) relative to nuclear genes (NDUFA and SDHA) using the AACT method. This methodology has been described previously (24).

[2] = system: Nkx6.1; assay: Nkx6.1 protein abundance, immunoblot of cytosolic and nuclear fractions; settings: 832/13 cells, IL-1β 4 h
Method: Cell lysis and extraction of cytoplasmic and nuclear protein fractions was performed using the NE-PER kit (Thermo Fisher Scientific) according to the manufacturer's directions. The protein concentration of the lysate was determined using the bicinchoninic acid assay (Thermo Fisher Scientific), using BSA as the standard. SDS-PAGE, transfer to polyvi-nylidene difluoride membranes, membrane blocking before antibody incubation, and downstream subsequent detection using a ChemiDoc imaging system (Bio-Rad) have been described previously (16). Antibodies detecting β-actin or tubulin were used as loading controls. Antibodies used were from the following sources: iNOS (Santa Cruz Biotechnology), (3-actin (Cell Signaling Technology), Ikα: (Santa Cruz Biotechnology), tubulin (Cell Signaling Technology), and Pdx-1 (Cell Signaling Technology). The antibody recognizing Nkx6.1 has been described (34). Immunoblot images were quantified using Image Lab software (Bio-Rad).

[3] = system: 832/13 cells; assay: Oxygen consumption rate (Seahorse XF24); settings: 1 ng/ml IL-1β, 18 h
Method: Oxygen consumption rates (OCR) were measured using the XF^24 Extracellular Flux Analyzer (Seahorse Bioscience, Chicopee, Mass.). 832/13 cells were grown on cell culture plates for 2 days prior to OCR assays being run. Cells were treated with vehicle, 1 ng/ml IL-β, 1 mM I-NMMA, or both IL-1β (1 ng/ml) plus I-NMMA (1 mM) for 18 h prior to OCR being measured. The oxygen consumption rate was measured over a 2-h period. Data represent the calculated average area under the curve from six wells per treatment group over multiple independent experiments.

[4] = system: 832/13 cells; assay: Live cell calcium imaging, glucose-induced calcium response (Calcium Green)
Method: 832/13 cells were plated into six-well plates containing poly-d-lysine-coated coverslips (Neuvitro, Vancouver, Wash.). At 50% confluence, cells were treated for 18 h with one of four experimental groups: 1 ng/ml […] alone, 1 mM I-NMMA alone, IL-1β+ I-NMMA, or normal growth media. Immediately prior to imaging, cells were preloaded with Calcium Green 1 AM (CG, C3012; Life Technologies) by transferring coverslips to a solution of 10|×M CG in 20% Pluronic F127 in DMSO (Life Technologies) made up in carbogenated (95% 02-5% C02) normal Krebs. The recipe for normal Krebs solution was (in mM) 124 NaCl, 25 NaHC03, 2 glucose, 3 KC1, 2 CaCl2, 1.5 NaH2P04, and 1 MgS04-7H20, which corrected to pH 7.4 with HCl. After incubation in the CG solution for 30 min, coverslips were transferred to carbogenated normal Krebs at 29° C.
Coverslips were transferred to a recording chamber on a fixed stage Zeiss Axioskop2 microscope equipped with a Perkin Elmer Ultra-view/Yokogawa C10 spinning disk laser confocal illuminator. Cells were illuminated with the 488 nm laser; CG-calcium fluorescence signals were collected at 509 nm. Cells were visualized with a X40 water immersion objective. Images were collected with a Hammamatsu Ocra-ER charge-coupled device camera. The confocal system, including image collection, was controlled by Perkin-Elmer Improvision software.
Cells on coverslips were constantly perfused with normal Krebs solution at 29° C. at a rate of 3 ml/min. After 10 min, the perfusion solution was switched to one containing 12 mM glucose and proportionally less sodium chloride to maintain osmolality. The 12 mM glucose challenge was applied for 5 min, followed by a 5 min washout period. Images of CG-labeled cells were collected continuously during the challenge period at a rate of 20/min, with each frame taking 1 s. Images were collected as TIFF stacks and processed using Nikon Elements AR software. Individual cells in the field were designated as regions of interest (ROI), and their fluorescence signal over time was captured. Background fluorescence was subtracted from the fluorescence signal of individual ROIs. The relative changes in cytoplasmic calcium in the cells were expressed as changes in fluorescence [(AF/F) %], where F is the intensity of the baseline fluorescence signal before stimulation and AF is the difference between the peak fluorescence intensity and the baseline signal. Therefore, magnitude of response was normalized for each individual ROI.

[5] = system: 832/13 cells; assay: Glucose-stimulated insulin secretion (GSIS) in 832/13 cells, insulin ELISA; settings: for decrease in GSIS: 1 ng/ml IL-1β
Method: (§1) 832/13 cells were grown in 12-well plates and treated as indicated. Glucose-stimulated insulin secretion (GSIS) assays were performed as described previously (29). Insulin secretion by cell lines into the media was measured using either the High Range Rat Insulin ELISA kit (Mercodia, Uppsala, Sweden) or by rat islets using the insulin radioimmunoassay (Siemens, Malvern, Pa.) according to the company directions. In addition, cells were lysed using M-PER lysis reagent (Thermo Fisher Scientific) to quantify total intracellular protein content via BCA assay (Thermo Fisher Scientific). Insulin secretion data were normalized to total protein to account for any differences in cell number between treatment groups. Incorporation of tritiated thymidine into DNA as a cellular index of proliferation was carried out as described (45).

[6] = system: 832/13 cells; assay: Tritiated thymidine incorporation into DNA (proliferation); settings: IL-1β 18 h
Method: as §1

[7] = pretreated 18 h with IL-1β alone, 12 mM glucose

## IL-1β: proinflammatory cytokine purchased from Thermo Fisher Scientific, used at 1 ng/ml
[1]
  mitochondrial/nuclear DNA ratios: did not detect any alterations
[2]
  decrease in Nkx6.1 abundance: 47%
[3]
  decrease in cellular oxygen consumption rate: 25%
[4]; [7]
  average response magnitude (change in fluorescence): 20%
  cells responding to the glucose challenge: 61%
[4]; pretreated with IL-1β alone
  reduction of responses relative to control group: 39%
[5]; 6 h
  decrease in GSIS: 40% and 36%
[5]; 12 h
  decrease in GSIS: 59%
[5]; IL-1β
  time by which insulin secretion began to decrease: ≤ 6 h
[5]; IL-1β, associated with 13-fold increase in nitrite, time not given
  diminution in GSIS: 54%
[6]
  ability to incorporate thymidine into DNA: reduced markedly
